Reference: PubChem BioAssay AID602156 (GNF / Scripps Winzeler lab, 2011)
Activity calls are given as the source filed them. The rule behind the calls is not given here.

These compounds were tested on P. yoelii liver stage in HepG2-A16-CD81EGFP, imaging (assay: Plasmodium liver-stage growth inhibition, dose response, imaging, Malaria Box, P. yoelii, HepG2-A16-CD81EGFP (AID 602156);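 note: infected cells exposed to compound for 48 hours before fixation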).

Row | SMILES | IC50
1 | COc1ccc2nc(-c3ccccc3)cc(NCCN(C)C)c2c1 | 0.57 µM
2 | CCCn1c(-c2cccc(Br)c2)nc2ccccc21 | > 8.91 µM (inactive)
3 | CCC(C)Nc1nc(NC(C)CC)nc(N2CCCCCC2)n1 (stereo not given) | 0.3 µM
4 | CN(C)c1oc(-c2ccc(Cl)cc2Cl)nc1[P+](c1ccccc1)(c1ccccc1)c1ccccc1 | 0.129 µM
5 | O=C(c1ccc([N+](=O)[O-])cc1)c1ccc(Cl)c(Cl)c1 | 1.64 µM
6 | O=C1C2=C(Nc3ccccc3SC2c2cccs2)c2ccccc21 (stereo not given) | 0.0904 µM
7 | O=c1c2c([nH]c3ccccc13)CCCCCCCCCC2 | 0.099 µM
8 | COc1cncc(-c2cncc(-c3ccc(C)cc3)n2)c1 | > 10 µM (inactive)
9 | Cc1cccc(C(=O)NCc2n[nH]c(=S)n2-c2cccc(C(F)(F)F)c2)c1 | > 10 µM (inactive)
10 | CC(Oc1ccc(Cl)cc1Cl)c1nc(-c2ccc(NC(=O)c3cccs3)cc2)no1 (stereo not given) | 0.114 µM
11 | c1ccc(CNc2nc(Nc3ccccc3)nc3ccccc23)cc1 | 0.153 µM
12 | CC(C)(C)OC(=O)N1CCC(c2c(C(=O)Nc3cccc(C(F)(F)F)c3)cnn2-c2ccc(F)cc2F)CC1 | 3.12 µM
13 | COc1cccc(-c2cncc(-c3cncc(OC)c3)n2)c1 | > 10 µM (inactive)
14 | Cc1ccc(-c2cc3nc4c(c(=O)n3[nH]2)CCCC4)cc1 | 0.0753 µM
15 | Cc1ccc(-c2c[n+]3c(n2-c2ccc(C)cc2)CCCCC3)cc1 | 0.146 µM
16 | CCCCC(CC)C(=O)N1CCN(C(CC)c2nc3ccccc3c(=O)n2C)CC1 (stereo not given) | 0.231 µM
17 | CN(C)c1cc[n+](CC(=O)Nc2ccc(Cl)cc2)cc1 | 0.584 µM
18 | CC(=O)Nc1cccc(-c2cncc(-c3ccc(C(=O)O)cc3)n2)c1 | > 10 µM (inactive)
19 | CC[n+]1c(C=C2C=C(C)OC(C)=C2)sc2ccccc21 | 0.245 µM
20 | O=C(O)Cn1cnc2nc3n(c2c1=O)CCC3 | > 0.765 µM (inactive)
21 | COC(=O)c1ccc(C2C3=C(CC(c4ccco4)CC3=O)Nc3ccccc3N2C(=O)c2ccccc2)cc1 (stereo not given) | > 4.78 µM (inactive)
22 | Cc1ccc(-n2c(-c3ccccc3)cc(C=NNC(=O)c3cccc(-n4c(C)ccc4C)c3)c2-c2ccccc2)cc1 | 0.0479 µM
23 | CCN1/C(=C/c2ccc3ccccc3[n+]2CC)Sc2sc3ccccc3c21 | 0.00621 µM
24 | CCCN(C(=O)Nc1c(C(C)C)cccc1C(C)C)C(CC)c1nc2ccccc2c(=O)n1-c1cccc(C)c1 (stereo not given) | 6.3 µM
25 | NC(Cc1ccccc1)C(=O)N1CCn2c(nc(-c3ccccc3)c2Nc2ccc3c(c2)OCO3)C1 (stereo not given) | 0.00185 µM
26 | CC(=O)N(C1=C(N2CCOCC2)C(=O)c2ccccc2C1=O)c1ccc(I)cc1 | 0.602 µM
27 | Cc1cn2c3ccccc3n(CCN3CCCC3)c2n1 | 1.07 µM

Row | SMILES | IC50
28 | Cc1ccc(Nc2nc(NCc3ccccc3)c3ccccc3n2)cc1 | 0.278 µM
29 | CCC(/C=C1\Sc2ccc(OC)cc2N1CCCS(=O)(=O)O)=C\c1sc2ccc(OC)cc2[n+]1CCCS(=O)(=O)O | 0.0112 µM
30 | Cc1nc([P+](c2ccccc2)(c2ccccc2)c2ccccc2)c(N2CCCCC2)o1 | 0.0824 µM
31 | COc1ccc(-c2n(CC(=O)OC3CC(C)CCC3C(C)C)c3ccccc3[n+]2C)cc1 (stereo not given) | 0.156 µM
32 | Cc1ncc(CCCCN(C)C)c2c1[nH]c1ccccc12 | 2.77 µM
33 | Cc1ccc(Nc2nc3c(N)nnc(N)c3nc2Nc2ccc(C)cc2)cc1 | 0.488 µM
34 | CCOC(=O)c1ccc(NC(=O)CSc2nc(NCc3ccccc3)c3ccccc3n2)cc1 | 0.0381 µM
35 | Cc1cc(N)c2ccccc2[n+]1CCCCCCCCCC[n+]1c(C)cc(N)c2ccccc21 | 0.566 µM
36 | CCOC(=O)c1ccc2[nH]c(-c3ccccc3)cc(=O)c2c1 | 0.02 µM
37 | CCOC(=O)c1cnc2ccc(OC)cc2c1NCc1cccs1 | 0.193 µM
38 | CCOc1ccc(N(C(=O)C2COc3ccccc3O2)C(C(=O)NC2CCCCC2)c2cn(C)nc2C)cc1 (stereo not given) | > 10 µM (inactive)
39 | O=C(Nc1ccc(-c2nc3ccc(NC(=O)c4cccc([N+](=O)[O-])c4)cc3[nH]2)cc1)c1cccc([N+](=O)[O-])c1 | > 0.944 µM (inactive)
40 | CCOC(=O)c1c(CNC)n(C)c2cc(Br)c(O)cc12 | > 10 µM (inactive)
41 | CCN(CC)CCCN(Cc1cc2cc(OC)c(OC)cc2[nH]c1=O)C(=S)Nc1cccc(Cl)c1 | 0.163 µM
42 | Cc1ccc(-c2cc(C(=O)OCC(=O)c3cccc([N+](=O)[O-])c3)c3cc(C)ccc3n2)cc1 | > 10 µM (inactive)
43 | COc1ccc2sc(Nc3nc(-c4ccccn4)cs3)nc2c1 | 0.159 µM
44 | O=C1c2ccccc2C2=Nc3ccccc3SC(c3ccccc3F)C12 (stereo not given) | 0.239 µM
45 | c1ccc(CSc2scnc2[P+](c2ccccc2)(c2ccccc2)c2ccccc2)cc1 | 0.0685 µM
46 | CCc1c(C)c(C#N)c2nc3ccccc3n2c1NCc1ccccc1 | > 9.6 µM (inactive)
47 | CC[n+]1c(/C=C/C=C2\N(C)c3ccccc3C2(C)C)n(-c2ccccc2)c2cc(Cl)ccc21 | 0.0136 µM
48 | O=C1c2ccccc2C2=Nc3ccccc3SC(c3cccc(F)c3)C12 (stereo not given) | 0.163 µM
49 | C=CCc1c(C)[nH]c2ccc(Br)cc2c1=O | 0.181 µM
50 | Cc1ccc2nc3nc4c(C)cccc4c(N)c3cc2c1 | 0.0474 µM
51 | COc1ccc(-c2c(C(F)(F)F)nn(C)c2NC(=O)Nc2ccc(F)cc2F)cc1 | 3.45 µM
52 | CCCC[n+]1ccccc1C=C1Sc2ccccc2N1CC | 0.0109 µM
53 | CC[n+]1c(C=C2C=Cc3cc(C)ccc3N2C)sc(C)c1C | 0.0113 µM
54 | COc1ccccc1Nc1nc(NCc2ccccc2)c2ccccc2n1 | 0.0913 µM

Row | SMILES | IC50
55 | O=C(C1CC1)N1CCc2cc(Br)cc(S(=O)(=O)N3CCCC3)c21 | > 10 µM (inactive)
56 | O=[N+]([O-])c1cc(C(F)(F)F)ccc1N1CCCN(C(=S)Nc2ccccc2)CC1 | 2.23 µM
57 | CCOC(=O)c1ccc(NCc2c(C)[nH]c3ccccc3c2=O)cc1 | 0.137 µM
58 | O=C1C2=C(Nc3ccccc3SC2c2ccc(Br)cc2)c2ccccc21 (stereo not given) | 0.327 µM
59 | O=C1C2=C(Nc3ccccc3SC2c2ccccc2)c2ccccc21 (stereo not given) | 0.0937 µM
60 | Cc1ccc(-c2[nH]n3c(=O)c4c(nc3c2C)CCCC4)cc1 | 0.0113 µM
61 | CC(c1nc2ccccc2c(=O)n1C)N1CCN(C(=O)C(C)(C)C)CC1 (stereo not given) | 0.492 µM
62 | O=C(O)c1c[nH]c2cc(N3CCCCCC3)c(F)cc2c1=O | > 10 µM (inactive)
63 | CCOC(=O)c1c(CSc2ccccc2)oc2cc(CN(C)C)c(O)c(Cl)c12 | 7.2 µM
64 | Oc1cccc2ccc(Nc3ccccn3)nc12 | 0.142 µM
65 | CCc1c(C#N)c(N)nc(SCC(=O)c2ccc(C)cc2)c1C#N | > 10 µM (inactive)
66 | O=C1C(Nc2ccc(O)cc2)=CC(=NS(=O)(=O)c2cccs2)c2ccccc21 | 0.0856 µM
67 | CCOC(=O)C1=C(C)NC2=C(C(=O)C(C(=O)OCC)C(c3ccccc3OC)C2)C1c1ccc([N+](=O)[O-])cc1 (stereo not given) | 0.335 µM
68 | CCN1CCN(c2c(C(=O)c3ccccc3)cnc3cc(OC)c(OC)cc23)CC1 | 0.367 µM
69 | CCOc1ccc(Nc2cc(=O)oc3ccccc23)cc1 | 0.502 µM
70 | COc1ccc2[nH]c(=O)c(CN(C(=S)Nc3ccccc3OC)C3CCCC3)cc2c1 | > 9.74 µM (inactive)
71 | O=c1c2c([nH]c3ccccc13)CCCC2 | 0.5 µM
72 | Clc1ccccc1-c1nc([P+](c2ccccc2)(c2ccccc2)c2ccccc2)c(N2CCOCC2)o1 | 0.0956 µM
73 | O=C(NC(=C(Cl)Cl)[P+](c1ccccc1)(c1ccccc1)c1ccccc1)c1ccc(F)cc1 | 0.0145 µM
74 | CCN1C(=Cc2cc[n+](C)cc2)C=Cc2cc(C)ccc21 | 0.17 µM
75 | CCOC(=O)C1=C(C)NC2=C(C(=O)C(C(=O)OCC)C(c3cccc(OC)c3)C2)C1c1cc(OC)c(OC)c(OC)c1 (stereo not given) | 0.232 µM
76 | CCN(CC)CCCN(Cc1cc2ccc(C)cc2[nH]c1=O)C(=S)Nc1cccc(Cl)c1 | 0.448 µM
77 | NCC(=O)N1CCn2c(nc(-c3ccccc3)c2Nc2ccc3c(c2)OCO3)C1 | 0.221 µM
78 | COc1ccccc1Cc1nc2ccccc2nc1SCC(=O)Nc1cccc(C(F)(F)F)c1 | > 10 µM (inactive)
79 | Cc1nc2ccc(NC(=O)C3CC3)cc2c(=O)n1Cc1ccc(Cl)cc1 | > 10 µM (inactive)
80 | CCCC(=O)NC(c1ccc(Cl)cc1)c1ccc2cccnc2c1O (stereo not given) | 0.19 µM
81 | CCOC(=O)C1=C(c2ccccc2)N=c2sc(=Cc3cc(C)n(-c4ccc(F)cc4)c3C)c(=O)n2C1c1cccc(OC)c1OC (stereo not given) | 2.45 µM

Row | SMILES | IC50
82 | CCOc1ccc(Nc2nc(NCc3ccccc3)c3ccccc3n2)cc1 | 0.48 µM
83 | COc1ccc(C2CC(=O)C3=C(C2)NC(C)=C(C(=O)OC2CCCC2)C3c2ccc([N+](=O)[O-])cc2)cc1OC (stereo not given) | 3.92 µM
84 | COc1ccc2c(C)nc(Nc3nc(C)cc(-c4ccccc4)n3)nc2c1 | 6.66 µM
85 | O=C(Cc1cccs1)N1CCN(c2ccccn2)CC1 | > 10 µM (inactive)
86 | CC(C)CC(N)C(=O)N1CCn2c(nc(-c3ccccc3)c2Nc2ccc3c(c2)OCO3)C1 (stereo not given) | 0.186 µM
87 | O=C(c1cccc([N+](=O)[O-])c1)c1ccc(Cl)c(Cl)c1 | 3.81 µM
88 | Fc1ccc2nc(Nc3nc(-c4ccccn4)cs3)sc2c1 | 0.0438 µM
89 | CCCCCCCC[n+]1c(C)n(CC)c2cc(C(=O)OCC)ccc21 | 0.99 µM
90 | COc1cccc(OC)c1C(=O)Nn1c(-c2cccc(C)c2)nc2ccccc2c1=O | > 10 µM (inactive)
91 | Brc1ccc(Nc2nc(NCc3ccco3)c3ccccc3n2)cc1 | 0.163 µM
92 | COc1ccccc1CNC(=O)c1nn(-c2ccc(Cl)cc2)c(=O)c2ccccc12 | > 10 µM (inactive)
93 | Fc1ccc(-c2c[n+]3c(n2-c2ccccc2)SCC3)cc1 | > 4.3 µM (inactive)
94 | CCOC(=O)CN(N=O)C1=C(N2CC2)C(=O)c2ccccc2C1=O | 0.48 µM
95 | c1ccc(Nc2ccnc(Nc3ccccc3)n2)cc1 | 1.48 µM
96 | CN1CCN(c2ccc(Nc3c4ccccc4nc4ccccc34)cc2)CC1 | 0.547 µM
97 | CCOC(=O)c1c(NC(C)=O)sc2c1CCN(C(C)C)C2 | 3.01 µM
98 | CCC(C)(C)c1ccc(OCCOCC[n+]2ccccc2)c(C(C)(C)CC)c1 | 0.0962 µM
99 | Cc1ccc(OCC(=O)Nc2cccc(-c3nc4ncccc4o3)c2)cc1C | > 10 µM (inactive)
100 | CCC1CN2CCc3cc(OC)c(OC)cc3C2CC1CC1NCCc2cc(OC)c(OC)cc21 (stereo not given) | 0.0802 µM
101 | CCCCc1c(C)[nH]c2c(OC)cccc2c1=O | 0.561 µM
102 | CCC(Sc1nnc(-c2ccc(C)cc2)c(-c2ccc(C)cc2)n1)C(=O)NCCOC (stereo not given) | 0.303 µM
103 | Cc1ccc(Nc2cc(C)nc(NCc3ccccc3)n2)c(C)c1 | 1.3 µM
104 | O=C(c1cnsn1)N1CCCC(COc2cccc(CN3CCC(Cc4ccccc4)CC3)c2)C1 (stereo not given) | 0.609 µM
105 | COc1ccc(C(c2ccc(N(C)C)cc2)c2ccc(N(C)C)cc2)cc1 | > 10 µM (inactive)
